We go through 1 compound from patent US10322097B2, “Treatment of subjects with multidrug-resistant cancer” (priority 2015, dated 2019).

For data set [1], the system named is SGC-7901 (Gastric) cisplatin resistant cancer cells. Kind of data set: MTT cytotoxicity assay, SGC-7901 cisplatin resistant. Type of data set: cell-based, human. How it is done:
(§1) Cell cultures and cytotoxicity assays have been used. Celastrol was dissolved in DMSO at a final concentration of 100 mmol/L and stored at −20° C. Cytotoxicity was assessed using the 3-(4,5-dimethylthiazol-2-yl)-2,5-diphenyltetrazolium bromide assay. 4000 cells from A2780 cisplatin sensitive/resistant ovarian cancer cells or SGC-7901 cisplatin sensitive/resistant gastric cancer cells were seeded on 96-well plates per well. After overnight pre-incubation, the cells were exposed to different concentrations of celastrol (0.039-100 μmol/L) or cisplatin for 3 days. Subsequently, 10 μL of MTT reagents were added to each well and incubated at 37° C. for 4 hours followed by the addition of 100 μL solubilization buffer (10% SDS in 0.01 mol/L HCl) and overnight incubation. Absorbance at 585 nm was determined from each well the next day. The percentage of cell viability was calculated using the following formula: Cell viability (%)=Cells number treated/Cells number DMSO control×100. Data were obtained from three independent experiments.
Background: Tetrazolium assays rely on reduction of a dye to a coloured formazan, in cell work by metabolically active cells.

Data set [2] concerns DLD-1 Bax-Bak+/+ colon cancer cells. Kind of data set: MTT cytotoxicity assay, DLD-1 Bax-Bak+/+. The format is cell-based. The note with it: Homo sapiens, DLD-1, 72 h, read-out: IC50 DLD-1 Bax-Bak+/+ colon cancer cells. How it is done:
Cell cultures and cytotoxicity assays have been used. Celastrol was dissolved in DMSO at a final concentration of 100 mmol/L and stored at −20° C. Cytotoxicity was assessed using the 3-(4,5-dimethylthiazol-2-yl)-2,5-diphenyltetrazolium bromide assay. 4000 cells from HCT116 p53^+/+ or p53^−/− colon cancer cells and DLD-1 Bax-Bak^+/+ or Bax-Bak^−/− colon cancer cells were seeded on 96-well plates per well. […] Subsequently, 10 μL of MTT reagents were added to each well and incubated at 37° C. for 4 hours followed by the addition of 100 μL solubilization buffer (10% SDS in 0.01 mol/L HCl) and overnight incubation. […] The percentage of cell viability was calculated using the following formula: Cell viability (%)=Cells number treated/Cells number DMSO control×100. Data were obtained from three independent experiments.

Data set [3] has as its system HEK293 kidney cells. Kind of data set: MTT cytotoxicity assay, HEK293. Type of data set: cell-based. The note with it: Homo sapiens, HEK293, 72 h, 3 days. How it is done: as §1, with “HEK293 and HEK293/ABCB5 kidney” for “A2780 cisplatin sensitive/resistant ovarian”, “MDA-MB-231 pcDNA and MDA-MB-231/BCRP breast” for “SGC-7901 cisplatin sensitive/resistant gastric”, “(0.1-10” for “(0.039-100”, “μmol/L)” for “μmol/L) or cisplatin”

In data set [4] the test system is MCF-7 (Breast) taxol resistant cancer cells. Kind of data set: MTT cytotoxicity assay, MCF-7 taxol resistant. The format is cell-based, human. How it is done: (§2) Cell cultures and cytotoxicity assays have been used. Celastrol was dissolved in DMSO at a final concentration of 100 mmol/L and stored at −20° C. Cytotoxicity was assessed using the 3-(4,5-dimethylthiazol-2-yl)-2,5-diphenyltetrazolium bromide assay. 4000 cells from A549 (lung), A2780 (ovary), HCT-8 (colon) and MCF-7 (breast) cancer cells were seeded on 96-well plates per well. After overnight pre-incubation, the cells were exposed to different concentrations of celastrol (0.039-100 μmol/L) or taxol for 3 days. Subsequently, 10 μL of MTT reagents was added to each well and incubated at 37° C. for 4 hours followed by the addition of 100 μL solubilization buffer (10% SDS in 0.01 mol/L HCl) and overnight incubation. Absorbance at 585 nm was determined from each well the next day. The percentage of cell viability was calculated using the following formula: Cell viability (%)=Cells number treated/Cells number DMSO control×100. Data were obtained from three independent experiments.

Data set [5] addresses P-gp (Homo sapiens, UniProt P08183). The data set can be described thus: Rho123 efflux assay in A549 taxol-resistant lung cancer cells (flow cytometry). How it is done: A549 taxol-resistant lung cancer cells were seeded in 6 well-plates at a final concentration of 2×10^5 cells per well and cultured for 24 h at 37° C. in an atmosphere containing 5% CO2. […] Subsequently, 5 mg/mL Rho123 was added to each well and the wells were incubated for another 1 h at 37° C. At the end of the incubation, the accumulation of Rho123 was stopped by washing the cells five times with ice-cold PBS. After cell centrifugation, cell pellets were resuspended in 400 μL PBS. […] All data acquisition and analyses were performed with CellQuest (BD Biosciences, San Jose, Calif., USA) in triplicate in three independent experiments, and the results were shown as the mean of fluorescence intensity.
A549 taxol-resistant lung cancer cells were seeded in 6 well-plates at a final concentration of 2×10^5 cells per well and cultured for 24 h at 37° C. in an atmosphere containing 5% CO2. […] All data acquisition and analyses were performed with CellQuest (BD Biosciences, San Jose, Calif., USA) in triplicate in three independent experiments, and the results were shown as the mean of fluorescence intensity.

The test system of data set [6] is MCF-7 (Breast) taxol sensitive cancer cells. Kind of data set: MTT cytotoxicity assay, MCF-7 taxol sensitive. The note with it: Homo sapiens, MCF7, 72 h, read-out: IC50 MCF-7 (Breast) (Taxol sensitive). The format is cell-based. How it is done:
as §2

In data set [7] the test system is A2780 (Ovary) taxol sensitive cancer cells. Kind of data set: MTT cytotoxicity assay, A2780 taxol sensitive. The note with it: Homo sapiens, A2780, 72 h, read-out: IC50 A2780 (Ovary) (Taxol sensitive). Type of data set: cell-based. How it is done: as §2
For data set [8], the system named is A549 (Lung) taxol sensitive cancer cells. The data set can be described thus: MTT cytotoxicity assay, A549 taxol sensitive. The note with it: Homo sapiens, A549, 72 h, read-out: IC50 A549 (Lung) (Taxol sensitive). Type of data set: cell-based. How it is done: as §2

Sequence of P-gp (P08183 whole entry): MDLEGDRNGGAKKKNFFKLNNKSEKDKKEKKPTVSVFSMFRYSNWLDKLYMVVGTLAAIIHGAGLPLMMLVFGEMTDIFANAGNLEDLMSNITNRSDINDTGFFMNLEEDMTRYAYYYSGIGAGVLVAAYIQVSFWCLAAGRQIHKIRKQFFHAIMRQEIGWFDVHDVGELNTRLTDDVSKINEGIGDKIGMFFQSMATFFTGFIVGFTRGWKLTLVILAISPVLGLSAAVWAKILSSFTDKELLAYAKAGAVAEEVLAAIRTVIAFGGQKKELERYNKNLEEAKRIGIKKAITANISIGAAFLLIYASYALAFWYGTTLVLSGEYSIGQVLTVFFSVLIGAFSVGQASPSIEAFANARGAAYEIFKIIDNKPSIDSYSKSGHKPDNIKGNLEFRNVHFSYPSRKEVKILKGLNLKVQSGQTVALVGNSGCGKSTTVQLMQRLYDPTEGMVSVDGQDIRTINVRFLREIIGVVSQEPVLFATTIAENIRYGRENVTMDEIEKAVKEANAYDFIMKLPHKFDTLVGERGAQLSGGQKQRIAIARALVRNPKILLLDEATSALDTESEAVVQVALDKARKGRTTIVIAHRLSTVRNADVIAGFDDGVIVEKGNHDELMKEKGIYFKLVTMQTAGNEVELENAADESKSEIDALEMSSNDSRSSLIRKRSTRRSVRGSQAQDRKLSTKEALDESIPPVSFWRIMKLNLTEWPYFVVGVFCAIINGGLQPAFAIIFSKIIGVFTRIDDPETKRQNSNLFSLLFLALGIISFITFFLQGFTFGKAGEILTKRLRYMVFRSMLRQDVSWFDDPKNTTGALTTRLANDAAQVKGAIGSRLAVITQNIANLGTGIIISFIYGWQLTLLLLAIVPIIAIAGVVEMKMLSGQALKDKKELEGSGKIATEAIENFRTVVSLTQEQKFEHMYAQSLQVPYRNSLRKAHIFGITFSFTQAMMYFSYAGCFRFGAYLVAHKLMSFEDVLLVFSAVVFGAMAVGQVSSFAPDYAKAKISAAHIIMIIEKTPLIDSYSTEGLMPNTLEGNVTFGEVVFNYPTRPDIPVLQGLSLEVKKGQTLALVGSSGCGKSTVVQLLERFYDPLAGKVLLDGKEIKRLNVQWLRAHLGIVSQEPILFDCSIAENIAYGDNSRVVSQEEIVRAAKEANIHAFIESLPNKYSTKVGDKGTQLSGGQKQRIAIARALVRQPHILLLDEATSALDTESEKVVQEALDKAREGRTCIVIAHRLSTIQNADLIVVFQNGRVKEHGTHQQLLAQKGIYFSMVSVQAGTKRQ

With `CC1=C(O)C(=O)C=C2C1=CC=C1[C@@]2(C)CC[C@@]2(C)[C@@H]3C[C@](C)(C(=O)O)CC[C@]3(C)CC[C@]12C` [Celastrol, celastrol], the IC50 is 1.72 µM in data set [1] (Homo sapiens, SGC-7901, 72 h, read-out: IC50 SGC-7901 (Gastric) (Cisplatin resistant)); 0.575 µM in data set [2]; 3.08 µM in data set [3]; 0.73 µM in data set [4] (Homo sapiens, MCF7, 72 h, read-out: IC50 MCF-7 (Breast) (Taxol resistant)); 1.12 µM in data set [6]; 0.902 µM in data set [7]. Moreover, the IC50 in data set [8] worked out at 2.4 µM. The “Resistant Factor” value in data set [1] (SGC-7901 cisplatin resistant versus cisplatin sensitive) turned out to be 0.88; in data set [4] (MCF-7 taxol resistant versus taxol sensitive), 0.65. Further, the “P-gp activity / Rho123 accumulation (Example 2)” value in data set [5] is listed as “inhibited the P-gp activity dose-dependently”. Also, in data set [5], the “P-gp activity / Rho123 accumulation (Example 9)” value is “inhibited the P-gp activity dose-dependently”.
